What is called IC50 is the concentration needed to halve the response being measured. Low values mean inhibition by little substance, high ones a need for much substance.

This test has as its target Transcription factor Jun (Homo sapiens, UniProt P05412). The test is described as follows: Concentration required to inhibit activator protein-1(AP-1) mediated transcriptional activation in human Jurkat T-cells.

Sequence of Transcription factor Jun (P05412 whole entry): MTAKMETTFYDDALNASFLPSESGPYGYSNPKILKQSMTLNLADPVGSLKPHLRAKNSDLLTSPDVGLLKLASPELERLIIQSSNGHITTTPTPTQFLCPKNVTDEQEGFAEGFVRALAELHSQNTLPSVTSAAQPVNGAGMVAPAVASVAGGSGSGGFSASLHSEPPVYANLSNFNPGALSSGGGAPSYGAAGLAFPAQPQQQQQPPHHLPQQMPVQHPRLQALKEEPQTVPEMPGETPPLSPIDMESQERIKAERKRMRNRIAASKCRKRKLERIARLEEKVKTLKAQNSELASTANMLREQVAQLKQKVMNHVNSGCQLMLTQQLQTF

Compound `O=C(Nc1cc(C(F)(F)F)cc(C(F)(F)F)c1)c1cnc(C(F)(F)F)nc1C(F)(F)F` [2,4-Bis-trifluoromethyl-pyrimidine-5-carboxylic acid (3,5-bis-trifluoromethyl-phenyl)-amide] returned an IC50 above 10 µM.

Consider `O=C(Nc1cc(C(F)(F)F)cc(C(F)(F)F)c1)c1cc(Cl)nc(Cl)n1` [2,6-Dichloro-pyrimidine-4-carboxylic acid (3,5-bis-trifluoromethyl-phenyl)-amide], for which the IC50 is above 10 µM.

Take `CCc1nc(Cl)ncc1C(=O)Nc1cc(C(F)(F)F)cc(C(F)(F)F)c1` [2-Chloro-4-ethyl-pyrimidine-5-carboxylic acid (3,5-bis-trifluoromethyl-phenyl)-amide]: the IC50 worked out at 0.3 µM.

`O=C(Nc1cc(C(F)(F)F)cc(C(F)(F)F)c1)c1cnc(Cl)nc1C(F)(F)C(F)(F)F` [2-Chloro-4-pentafluoroethyl-pyrimidine-5-carboxylic acid (3,5-bis-trifluoromethyl-phenyl)-amide]: the IC50 worked out at 0.6 µM.

The compound `CCCc1nc(Cl)ncc1C(=O)Nc1cc(C(F)(F)F)cc(C(F)(F)F)c1` [2-Chloro-4-propyl-pyrimidine-5-carboxylic acid (3,5-bis-trifluoromethyl-phenyl)-amide] came in with a half-maximal inhibitory concentration (IC50) of 0.5 µM.

With `O=C(Nc1cc(C(F)(F)F)cc(C(F)(F)F)c1)c1cnc(Cl)nc1-c1cccs1` [2-Chloro-4-thiophen-2-yl-pyrimidine-5-carboxylic acid (3,5-bis-trifluoromethyl-phenyl)-amide], 8 µM corresponded to half-maximal inhibition (IC50).

Regarding `Cc1cc(C(=O)Nc2cc(C(F)(F)F)cc(C(F)(F)F)c2)nc(Cl)n1` [2-Chloro-6-methyl-pyrimidine-4-carboxylic acid (3,5-bis-trifluoromethyl-phenyl)-amide], the IC50 was above 10 µM.

For `O=C(Nc1cc(C(F)(F)F)cc(C(F)(F)F)c1)c1cc(C(F)(F)F)nc(Cl)n1` [2-Chloro-6-trifluoromethyl-pyrimidine-4-carboxylic acid (3,5-bis-trifluoromethyl-phenyl)-amide], the IC50 was above 10 µM.

Regarding `O=C(Nc1cc(C(F)(F)F)cc(C(F)(F)F)c1)c1cnc(Cl)nc1` [2-Chloro-pyrimidine-5-carboxylic acid (3,5-bis-trifluoromethyl-phenyl)-amide], the IC50 came to 0.3 µM.

`N#Cc1ncc(C(=O)Nc2cc(C(F)(F)F)cc(C(F)(F)F)c2)c(C(F)(F)F)n1` [2-Cyano-4-trifluoromethyl-pyrimidine-5-carboxylic acid (3,5-bis-trifluoromethyl-phenyl)-amide] returned an IC50 above 10 µM.

In turn, `Cc1ncc(C(=O)Nc2cc(C(F)(F)F)cc(C(F)(F)F)c2)c(C(F)(F)F)n1` [2-Methyl-4-trifluoromethyl-pyrimidine-5-carboxylic acid (3,5-bis-trifluoromethyl-phenyl)-amide] displayed a half-maximal inhibitory concentration (IC50) above 10 µM.

As to `O=C(Nc1cc(C(F)(F)F)cc(C(F)(F)F)c1)c1cnc(-c2ccccc2)nc1` [2-Phenyl-pyrimidine-5-carboxylic acid (3,5-bis-trifluoromethyl-phenyl)-amide], the IC50 is above 10 µM.

Consider `O=C(Nc1cc(C(F)(F)F)cc(C(F)(F)F)c1)c1cnc(C(F)(F)F)nc1` [2-Trifluoromethyl-pyrimidine-5-carboxylic acid (3,5-bis-trifluoromethyl-phenyl)-amide], for which the IC50 was above 10 µM.

In the case of `O=C(Nc1cc(C(F)(F)F)cc(C(F)(F)F)c1)c1cnc(C(F)(F)F)nc1Cl` [4-Chloro-2-trifluoromethyl-pyrimidine-5-carboxylic acid (3,5-bis-trifluoromethyl-phenyl)-amide], the IC50 was above 10 µM.

For `Cc1nc(C(F)(F)F)ncc1C(=O)Nc1cc(C(F)(F)F)cc(C(F)(F)F)c1` [4-Methyl-2-trifluoromethyl-pyrimidine-5-carboxylic acid (3,5-bis-trifluoromethyl-phenyl)-amide], the IC50 was above 10 µM.

In the case of `O=C(Nc1cc(C(F)(F)F)cc(C(F)(F)F)c1)c1ccc(Cl)cc1C(F)(F)F` [N-(3,5-Bis-trifluoromethyl-phenyl)-4-chloro-2-trifluoromethyl-benzamide], the IC50 was above 30 µM.

(Values after BindingDB's records for doi:10.1021/jm0001626 (Signal Pharmaceuticals, 2000).)
